Assay results: article PMC8533176, “1,5-Benzodiazepin-2(3H)-ones: In Vitro Evaluation as Antiparkinsonian Agents” (Antioxidants, 2021)

Assays:
Type in all cases: cell-based, human
[1] = test system: Caspase-3 activity in SH-SY5Y cells; assay: Caspase-3 activity; details: H2O2 500 µM 4 h; compound 24 h before
Description: Caspase-3 activity was measured using the Abcam fluorimetric kit (ab39383) according to the manufacturer’s instructions. Cells are washed with ice-cold PBS and lysed with lysis buffer. After compound and stressor treatments, SH-SY5Y cells were scraped off from p6 plates and collected in a 1.5 mL Eppendorf vial. The cell suspension was then centrifuged at 9000× g for 10 min at 4 °C. The supernatant was collected and stored at −80 °C for 24 h. Caspase 3 activity was measured as the ability of the cell extract to cleave the […] fluorochrome. The sample’s protein concentration was determined by the Bradford method. The reaction assay was performed by the addition of 50 μL of the cell lysate into the wells of a black 96-well culture plate followed by the addition of 50 μL of 2× reaction buffer containing DTT (10 mM) and caspase-3 substrate DEVD-AFC (final concentration 50 μM). Reagents were mixed by shaking the plate for 2 min at 300 rpm and then incubated at 37 °C for 2 h. Caspase-3 activity was measured as fluorescence intensity in a Varioskan microplate reader at λex = 400 nm and λem = 505 nm wavelengths. Relative fluorescence units (RFU)/mg of protein were calculated, and the fold increase in Caspase-3 activity was compared with that of the control.

SH-SY5Y cells [2] = assay: Lipid peroxidation (MDA, TBARS); details: 250 µM H2O2 24 h; 10 and 20 µM 24 h before
Description: For MDA studies, 2 × 10^5 SH-SY5Y cells were seeded in 6-well culture plates. After 24 h, cells were treated with the test compound and incubated for another 24 h. After compound treatment, cells were exposed to H2O2 for 24 h. Then, the cells were washed twice with cold 50 mM PBS buffer, detached, and lysed with lysis buffer, and TBA was added to each sample tube and vortexed. The reaction mixture was incubated at 96 °C for 60 min. After incubation, samples were cooled and centrifuged 10 min at 10^4 rpm. Samples were dispensed in 96-well culture black clear bottom plates, and fluorescence was measured with a Varioskan microplate reader at λex = 540 nm and λem = 590 nm wavelengths. Protein concentration was measured by the Bradford protein assay. The levels of MDA were expressed as nmol/mg protein. Experiments were performed four times in triplicate.

SH-SY5Y cells [3] = assay: Resazurin cell viability assay under H2O2; details: H2O2 250 µM 24 h; Figure 10B
SH-SY5Y cells [4] = assay: Neuroprotection in the 6-OHD neurotoxicity-induced model, MTT; details: 6-OHD 250 µM 48 h; compounds 24 h before
SH-SY5Y cells [5] = assay: Calcein-AM cell viability assay under H2O2; details: H2O2 250 µM 24 h; 5, 10, 20, and 40 µM; Figure 12
Description: Calcein-AM is a fluorescence-based cell viability assay. Calcein-acetoxymethyl (AM) is a non-fluorescent compound that enters the cells where intracellular esterases hydrolyze the acetoxymethyl group. The fluorescent calcein is retained in the living cells, and it can be detected at λex = 495 and λem = 550 nm. After treatment, all the samples were washed with PBS and incubated with 2 μM calcein-AM for 30 min at 37 °C, 5% CO2, and protected from light. The fluorescence was measured in a Varioskan microplate reader (Thermo Fisher Scientific, Vantaa, Finland) with λex = 490 and λem = 520 nm filters. Cell viability was calculated from samples treated with 1% Triton X-100 for 30 min at 37 °C, 5% CO2.
Calcein-AM is a membrane permeant, not a fluorescent compound. Only live cells with intact plasma membrane have esterases that hydrolyze the compound into the green fluorescent dye calcein, which is retained in the cytoplasm. The fluorescent signal obtained is proportional to the number of living cells in the sample. […] Microscopy images in Figure S3 show the neuroprotection activity observed with Calcein-AM for derivative 18.

SMILES: O=C1CC(c2ccccc2)=Nc2ccccc2N1 [Compound 18, 4-Phenyl-1H-1,5-benzodiazepin-2(3H)-one]
- Caspase-3 activity reduction [1]: reduced the levels of activated caspase 3
- Effect on MDA levels (SH-SY5Y cells [2]): significantly prevented
- Neuroprotection, cell viability (resazurin) (SH-SY5Y cells [3]): significant protection against the oxidative stress insult
- Neuroprotection, cell viability (MTT), 6-OHD model (SH-SY5Y cells [4]): significant neuroprotection
- Neuroprotection, Calcein-AM cell counting (SH-SY5Y cells [5]): statistically significant neuroprotectant activity
